In patent US7678788B2, “Diazabicyclic aryl derivatives” (Neurosearch A/S, priority 2003, dated 2010):

Target: T1, α7-subtype of nicotinic receptors (Rattus norvegicus, UniProt Q05941)
T1 construct: Cerebral cortices from male Wistar rats (150-250 g) are homogenised; from tissue; host or cells: rat cerebral cortex membrane homogenate
Assay: In vitro inhibition of 3H-α-bungarotoxine binding in rat brain
Conditions: rat cerebral cortex homogenate; 3H-α-bungarotoxine 2 nM; 2 hours at 37° C.

T1 sequence (Q05941 23-502): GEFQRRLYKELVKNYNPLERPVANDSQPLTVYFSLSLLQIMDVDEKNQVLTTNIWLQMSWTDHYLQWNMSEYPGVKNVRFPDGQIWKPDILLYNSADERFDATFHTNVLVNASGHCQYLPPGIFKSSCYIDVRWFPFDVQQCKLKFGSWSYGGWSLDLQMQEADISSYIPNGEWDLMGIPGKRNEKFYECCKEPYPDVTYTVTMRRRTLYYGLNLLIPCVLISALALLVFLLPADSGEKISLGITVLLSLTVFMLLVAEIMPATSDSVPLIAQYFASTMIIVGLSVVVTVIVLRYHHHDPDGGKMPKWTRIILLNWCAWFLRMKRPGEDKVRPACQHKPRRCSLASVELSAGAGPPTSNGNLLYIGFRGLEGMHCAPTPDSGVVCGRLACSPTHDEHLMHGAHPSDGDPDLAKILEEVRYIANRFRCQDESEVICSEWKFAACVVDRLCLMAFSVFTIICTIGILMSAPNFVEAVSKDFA

Structure (SMILES) | IC50 [nM]
Nc1cccc(-c2ccc(C(=O)N3CCN4CCC3CC4)o2)c1 [Compound C3, (1,4-Diaza-bicyclo[3.2.2]-non-4-yl)-5-(3-aminophenyl)-furan-2-yl-methanone] | 80
O=CNc1ccc(-c2ccc(C(=O)N3CCN4CCC3CC4)o2)cc1 [Compound F1, (1,4-Diaza-bicyclo[3.2.2]-non-4-yl)-5-(4-formylaminophenyl)-furan-2-yl-methanone] | 17
O=C(c1ccc(-c2cccc(C(F)(F)F)c2)o1)N1CCN2CCC1CC2 [Compound A5, (1,4-Diaza-bicyclo[3.2.2]-non-4-yl)-5-(3-trifluoromethylphenyl)-furan-2-yl-methanone] | 51
O=C(c1ccco1)N1CCN2CCC1CC2 [Compound A1, (1,4-Diaza-bicyclo[3.2.2]-non-4-yl)-furan-2-yl-methanone] | 540
